{
  "source": "patent US7183061B2",
  "about": "“Method of expressing Heliothis ecdysone receptor fusion protein” (Syngenta Limited, priority 1996, dated 2007)",
  "key": {"[1]": {"test_system": "glucocorticoid receptor transactivating and DNA binding domains fused to the ecdysone receptor hinge and ligand binding domains", "conditions": "mammalian cells; cited from earlier work"}, "[2]": {"biological_target": "T1, glucocorticoid/Drosophila ecdysone chimeric receptor (UniProt P04150+P34021)", "T1 construct": "expressed in transfected cells; host or cells: maize suspension-culture protoplasts", "T1 sequence (P04150+P34021 with tags, fused parts or gaps)": "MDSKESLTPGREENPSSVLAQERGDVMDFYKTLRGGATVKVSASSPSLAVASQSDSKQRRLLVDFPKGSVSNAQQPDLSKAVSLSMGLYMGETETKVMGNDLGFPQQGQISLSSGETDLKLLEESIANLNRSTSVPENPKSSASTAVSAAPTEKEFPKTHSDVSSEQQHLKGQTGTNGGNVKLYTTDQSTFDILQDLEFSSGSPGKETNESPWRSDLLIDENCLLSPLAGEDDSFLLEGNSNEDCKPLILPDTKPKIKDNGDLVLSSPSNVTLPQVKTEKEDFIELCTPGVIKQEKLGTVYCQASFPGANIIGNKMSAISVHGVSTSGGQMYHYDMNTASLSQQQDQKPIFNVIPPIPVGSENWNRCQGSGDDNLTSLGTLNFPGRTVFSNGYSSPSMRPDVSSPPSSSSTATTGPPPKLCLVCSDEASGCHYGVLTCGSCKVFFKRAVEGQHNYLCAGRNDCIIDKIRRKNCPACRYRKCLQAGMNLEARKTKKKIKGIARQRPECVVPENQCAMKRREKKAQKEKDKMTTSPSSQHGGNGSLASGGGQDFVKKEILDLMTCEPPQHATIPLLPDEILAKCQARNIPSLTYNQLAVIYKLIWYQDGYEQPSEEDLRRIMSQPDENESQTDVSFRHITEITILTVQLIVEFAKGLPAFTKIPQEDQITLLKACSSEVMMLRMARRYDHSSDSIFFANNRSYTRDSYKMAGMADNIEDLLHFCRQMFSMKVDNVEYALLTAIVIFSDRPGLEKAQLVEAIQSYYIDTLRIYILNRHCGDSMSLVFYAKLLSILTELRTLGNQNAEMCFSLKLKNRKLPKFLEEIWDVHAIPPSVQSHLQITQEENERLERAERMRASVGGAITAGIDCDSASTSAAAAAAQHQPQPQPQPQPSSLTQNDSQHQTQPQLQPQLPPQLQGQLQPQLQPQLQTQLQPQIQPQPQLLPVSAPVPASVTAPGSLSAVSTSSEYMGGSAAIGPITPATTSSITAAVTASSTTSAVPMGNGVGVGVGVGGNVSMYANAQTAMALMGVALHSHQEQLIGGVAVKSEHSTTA", "experiment": "Maize protoplast GUS reporter assay with pMF6GREcRS and p221.9GRE6", "format": "cell-based", "conditions": "maize protoplasts, reporter plus effector, concentration not given"}},
  "data": [
    {"smiles": "CC(C)(O)CC[C@@H](O)[C@](C)(O)[C@H]1CC[C@@]2(O)C3=CC(=O)[C@@H]4C[C@@H](O)[C@@H](O)C[C@]4(C)[C@H]3CC[C@]12C", "note": "[20-hydroxyecdysone]", "values": [
      {"measurement": "activity of chimeric receptor as homodimer", "setting": "[1]", "value": "not responsive"}
    ]},
    {"smiles": "CC(C)(C)N(NC(=O)c1ccccc1)C(=O)c1ccccc1", "note": "[RH5849, 1,2-dibenzoyl, 1-tert-butyl hydrazide]", "values": [
      {"measurement": "chemical induced reporter gene activity / induced levels of expression", "setting": "[2]", "value": "no chemical induced reporter gene activity"}
    ]}
  ]
}
